Series [1] deals with GNE Myopathy myotubes. Kind of series: ROS generation under pro-oxidants (H2O2 or menadione), ΔDCF fluorescence. In kind it is cell-based, mice. Here is the method:
(§1) Cell cultures and myotubes analysis: Myocytes from Gne^−/−hGNED176V-Tg mice and littermate controls were proliferated in DMEM containing 20% fetal bovine serum and 1% chicken embryo extracts in a 5% CO2 and induced to differentiation in a serum free medium, OPTIPRO™ SFM (Gibco), to make the cells hyposialylated. Where indicated, myotubes were treated with 5 mM NeuAc (Japan Food and Liquor Alliance) or 5 mM NAC (Sigma) for 72 h.
To evaluate the ROS generation under pro-oxidants, myotubes cultured in each condition were loaded with 5 μM DCFH-DA for 1 h and recovered in the different concentrations of H2O2 or menadione-containing medium. After 30 min incubation in dark at 37° C., the microplate containing cells with pro-oxidants were placed in a plate reader and fluorescence was captured at every 5 min until it reached a plateau. Maximum fluorescence of each well was used for analysis.

Series [2] relates to GNE Myopathy myotubes. Put plainly: Cell viability assay under pro-oxidants (propidium iodide/Hoechst co-staining). It counts as cell-based, mice. The note with it: treated GNE Myopathy myotubes under menadione exposure. The procedure:
as §1
For the cell viability assay, myotubes were exposed to H2O2 for 24 h and to menadione for 6 h before staining. Nuclear staining with Hoechst 33342 (Thermo Scientific) and propidium iodide (PI) (Dojindo) was used for morphological assessment of apoptosis by fluorescence microscopy (Lee and Shacter, Journal of Biological Chemistry. 1999; 274:19792-19798). Minimum 200 nuclei were counted and cell viability was calculated by the exclusion of PI-stained nuclei from Hoechst 33342-stained nuclei.

The next series deals with GNE Myopathy muscle. Kind of series: Gene expression analysis of muscle (quantitative RT-PCR and microarray). In kind it is in vivo, mice. The procedure:
Quantitative RT-PCR and microarray analysis: […] Microarray experiments were carried out using a […] Mouse Whole Genome Bioarray (Applied Microarrays Inc.) at Filgen Inc. The arrays were scanned using a […] Array Scanner (Molecular Devices Inc.). The data were analyzed by using Microarray Data Analysis Tool version 3.2 (Filgen Inc.). For quantitative PCR, TAQMAN® probes were used in combination with the TAQMAN® Gene Expression Master Mix (Applied Biosystems) in a total reaction of 20 μl. STEPONEPLUSTM Real-Time PCR System (Applied Biosystems) was used to quantify mRNA expression. mRNA relative expression was normalized to internal control (GAPDH) and determined as fold change in the average expression value of littermate muscles. The TAQMAN® probes used were as follows: F-box protein 32 (Fbxo32), Mm00499523_m1; tripartite motif-containing 63 (Trim63), Mm01185221_m1; Sulfiredoxin1 homolog (Srxn1), Mm00769566_m1; metallothionein 1 (Mt1), Mm00496660_g1; metallothionein 2 (Mt2), Mm00809556_s1; metallothionein 3 (Mt3), Mm00496661_g1; LC3b, Mm00782868_sH. N-Acetylcysteine (NAC) Treatment Protocols: […] were randomly divided into high dose NAC (n=13), low dose NAC (n=13), or untreated control (n=17) groups. […] There was no difference in water consumption between mice receiving NAC supplemented water or regular drinking water. […] Three littermates groups (high dose NAC; n=7, low dose NAC; n=7, or untreated control; n=6) were treated in the same way.

A short description of series [3]: Safety of long term NAC treatment (side effects, serum chemistry). In kind it is in vivo, mice. The text has this:
N-Acetylcysteine (NAC) Treatment Protocols: Gne^−/−hGNED176V-Tg mice were randomly divided into high dose NAC (n=13), low dose NAC (n=13), or untreated control (n=17) groups. For NAC (Sigma) treatment, mice were provided ad libitum access to drinking water containing high dose NAC (1.0% w/v) or low dose NAC (0.1% w/v), which gives an average dose of 1.5 g/kg for high dose group and of 0.15 g/kg for low dose group per day. There was no difference in water consumption between mice receiving NAC supplemented water or regular drinking water. Treatment was initiated from the average age of 26 weeks until the mice reached at least 55 weeks. Three littermates groups (high dose NAC; n=7, low dose NAC; n=7, or untreated control; n=6) were treated in the same way.

The mark [4] stands for this setting: HD and LD treated GNE Myopathy muscles.

Turning to `CC(=O)N[C@@H](CS)C(=O)O` [NAC, N-acetylcysteine], the “Protective effect in the high oxidative stress condition” value in the series on GNE Myopathy myotubes [1] (GNE Myopathy myotubes, H2O2 or menadione, more evident for menadione) is recorded as “worked effectively”. Also, the “ΔDCF fluorescence compared to littermate myotubes” value in the series on GNE Myopathy myotubes [1] (treated GNE Myopathy myotubes under menadione exposure) is “comparable”. In the series on GNE Myopathy myotubes [2], the “Cell viability compared to littermate myotubes” value was “even better”. Further, in the series on GNE Myopathy muscle (setting [4]), the “Upregulation of atrogenes (atrogin-1 and MuRF1)” value is recorded as “recovered”; the “Upregulation of oxidative stress responsive genes (MT1 and MT2)” value is reported as “recovered”. Besides, in the series on GNE Myopathy muscle (treated GNE Myopathy muscles, RT-PCR and microarray), the “LC3b expression (marker of autophagy)” value is on record as “recovered as well”. Moreover, in series [3] (long term treatment of mice), the Adverse side effects result is “No adverse side effects”. Besides, in series [3] (treated vs untreated mice), the Alkaline phosphatase entry is reported as “no difference”, the Blood urea nitrogen entry is on record as “no difference” and the Serum aspartate aminotransferase entry is “no difference”.

These data come from patent US10493087B2, “Sialylation-increasing therapies for diseases associated with oxidative stress” (THE UNITED STATES OF AMERICA, AS REPRESENTED BY THE …, priority 2015, dated 2019).
